How the values were obtained:
Type in all cases: in vivo
[1] = system: redroot pigweed (Amaranthus retroflexus, AMARE); assay: Pre-emerge test, greenhouse herbicide activity screening; details: pre-emerge, 14 days after application, scale 0-100
Outline: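 Compounds in acetone were track-sprayed at 187 l/ha, 15–1000 g ai/ha, onto sandy loam pots. Pre-emerge seeds were sown one day before spraying, with surface watering afterwards. Post-emerge plants were at the 2–3 leaf stage and sprayed with 0.25% v/v non-ionic surfactant. Injury was rated 0–100 at 14 days.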

[2] = system: barnyardgrass (Echinochloa crus-galli, ECHCG); assay: as above; details: pre-emerge, 14 days after application, scale 0-100
Excerpt: (§1) A standard greenhouse herbicide activity screening system was used to evaluate the herbicidal efficacy and crop safety of these test compounds. Seven broadleaf weed species including redroot pigweed (Amaranthus retroflexus, AMARE, velvetleaf (Abutilon theophrasti, ABUTH), sicklepod (Cassia obtusifolia, CASOB), ivyleaf morningglory (Ipomoea hederacea, IPOHE), lambsquarters (Chenopodium album, CHEAL), common ragweed (Ambrosia artemisizfolia L., AMBEL), and cocklebur (Xanthium strumarium, XANST) were used as test species. Four grass weed species including green foxtail (Setaria viridis, SETVI), barnyardgrass (Echinochloa crus-galli, ECHCG), johnsongrass (Sorghum halepense, SORHA), and large crabgrass (Digitaria sanguinalis, DIGSA) were also used. In addition, three crop species, field corn (Zea mays L., var. Dekalb 535, CORN), soybean (Glycine max L., var. Pella 86, SOY), and is upland rice (Oryza sp., var. Tebonnet, RICE) were included.
(§2) All plants were grown in 10 cm square plastic pots which were filled with a sandy loam soil mix. For pre-emerge tests, seeds were planted one day prior to application of the test compounds. For post-emerge tests, seeds were planted 8-21 days prior to the test to allow emergence and good foliage development prior to application of the test substances. At the time of the post-emerge application, plants of all species were usually at the 2-3 leaf stage of development.
(§3) All test compounds Were dissolved in acetone and applied to the test units in a volume of 187 l /ha. Test materials were applied at rates ranging from 15 g ai/ha to 1000 g ai/ha using a track sprayer equipped with a TJ8001E even flow flat fan spray nozzle. Plants were arranged on a shelf so that the top of the canopy (post-emerge) or top of the soil surface (pre-emerge) was 40-45 cm below the nozzle. Pressurized air was used to force the test solution through the nozzle as it was mechanically advanced (via electrically driven chain drive) over the top of all test plants/pots. This application simulates a typical commercial field herbicide application.
(§4) In the post-emerge test, a commercial non-ionic surfactant was also included (0.25% v/v) to enhance wetting of the leaf surfaces of target plants. Immediately after application, test units of the pre-emerge applications were watered at the soil surface to incorporate the test materials. Subsequently, these test units were bottom-watered. Post-emerge test units were always bottom-watered.
(§5) At 14 days after application of the test materials, phytotoxicity ratings were recorded. A rating scale of 0-100 was used as previously described in Research Methods in Weed Science, 2nd edition, B. Truelove, Ed., Southern Weed Science Society, Auburn University, Auburn, Ala. 1977. Briefly, “0” corresponds to no damage and “100” corresponds to complete death of all plants in the test unit. This scale was used both to determine efficacy against weed species and damage to crop species. Herbicide activity data for various compounds of this invention, which are shown by compound No. in Tables 1-8, are shown in Tables 11 and 12.

[3] = system: green foxtail (Setaria viridis, SETVI); assay: as above; details: pre-emerge, 14 days after application, scale 0-100
Excerpt: as §1, §2, §3, §4, §5

[4] = system: ivyleaf morningglory (Ipomoea hederacea, IPOHE); assay: as above; details: pre-emerge, 14 days after application, scale 0-100
Excerpt: as §1, §2, §3, §4, §5

[5] = system: lambsquarters (Chenopodium album, CHEAL); assay: as above; details: pre-emerge, 14 days after application, scale 0-100
Excerpt: as §1, §2, §3, §4, §5

[6] = system: large crabgrass (Digitaria sanguinalis, DIGSA); assay: as above; details: pre-emerge, 14 days after application, scale 0-100
Excerpt: as §1, §2, §3, §4, §5

[7] = system: sicklepod (Cassia obtusifolia, CASOB); assay: as above; details: pre-emerge, 14 days after application, scale 0-100
Excerpt: as §1, §2, §3, §4, §5

[8] = system: velvetleaf (Abutilon theophrasti, ABUTH); assay: as above; details: pre-emerge, 14 days after application, scale 0-100
Excerpt: as §1, §2, §3, §4, §5

[9] = system: field corn (Zea mays L., var. Dekalb 535, CORN); assay: Pre-emerge test, crop safety; details: pre-emerge, 14 days after application, scale 0-100
Outline: (§6)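 Fourteen days after spraying, crop and weed injury was graded visually from 0, no effect, to 100, every plant dead. Test substances were dissolved in acetone and applied at 15–1000 g ai/ha with a flat-fan nozzle. Application was either pre-emergence, one day after sowing, or post-emergence at the 2–3 leaf stage.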

[10] = system: upland rice (Oryza sp., var. Tebonnet, RICE); assay: Pre-emerge test, crop safety; details: pre-emerge, 14 days after application, scale 0-100
Outline: as §6

[11] = system: barnyardgrass (Echinochloa crus-galli, ECHCG); assay: Post-emerge test, greenhouse herbicide activity screening; details: post-emerge, 14 days after application, rating scale 0-100
Excerpt: as §1, §2, §3, §4, §5

[12] = system: green foxtail (Setaria viridis, SETVI); assay: as above; details: post-emerge, 14 days after application, rating scale 0-100
Excerpt: as §1, §2, §3, §4, §5

[13] = system: ivyleaf morningglory (Ipomoea hederacea, IPOHE); assay: as above; details: post-emerge, 14 days after application, rating scale 0-100
Excerpt: as §1, §2, §3, §4, §5

[14] = system: lambsquarters (Chenopodium album, CHEAL); assay: as above; details: post-emerge, 14 days after application, rating scale 0-100
Excerpt: as §1, §2, §3, §4, §5

[15] = system: large crabgrass (Digitaria sanguinalis, DIGSA); assay: as above; details: post-emerge, 14 days after application, rating scale 0-100
Excerpt: as §1, §2, §3, §4, §5

[16] = system: redroot pigweed (Amaranthus retroflexus, AMARE); assay: as above; details: post-emerge, 14 days after application, rating scale 0-100
Excerpt: as §1, §2, §3, §4, §5

[17] = system: sicklepod (Cassia obtusifolia, CASOB); assay: as above; details: post-emerge, 14 days after application, rating scale 0-100
Excerpt: as §1, §2, §3, §4, §5

[18] = system: velvetleaf (Abutilon theophrasti, ABUTH); assay: as above; details: post-emerge, 14 days after application, rating scale 0-100
Excerpt: as §1, §2, §3, §4, §5

[19] = system: field corn (Zea mays L., var. Dekalb 535, CORN); assay: Post-emerge test, crop safety; details: post-emerge, 14 days after application, rating scale 0-100
Outline: as §6

[20] = system: upland rice (Oryza sp., var. Tebonnet, RICE); assay: Post-emerge test, crop safety; details: post-emerge, 14 days after application, rating scale 0-100
Outline: as §6

Row | SMILES | phytotoxicity rating AMARE ([1]; 63 g ai/ha) | phytotoxicity rating AMARE ([1]; 250 g ai/ha) | phytotoxicity rating ECHCG ([2]; 63 g ai/ha) | phytotoxicity rating ECHCG ([2]; 250 g ai/ha) | phytotoxicity rating SETVI ([3]; 63 g ai/ha) | phytotoxicity rating SETVI ([3]; 250 g ai/ha) | phytotoxicity rating IPOHE ([4]; 63 g ai/ha) | phytotoxicity rating IPOHE ([4]; 250 g ai/ha) | phytotoxicity rating CHEAL ([5]; 63 g ai/ha) | phytotoxicity rating CHEAL ([5]; 250 g ai/ha) | phytotoxicity rating DIGSA ([6]; 63 g ai/ha) | phytotoxicity rating DIGSA ([6]; 250 g ai/ha) | phytotoxicity rating CASOB ([7]; 63 g ai/ha) | phytotoxicity rating CASOB ([7]; 250 g ai/ha) | phytotoxicity rating ABUTH ([8]; 63 g ai/ha) | phytotoxicity rating ABUTH ([8]; 250 g ai/ha) | phytotoxicity rating CORN (crop damage) ([9]; 63 g ai/ha) | phytotoxicity rating CORN (crop damage) ([9]; 250 g ai/ha) | phytotoxicity rating RICE (crop damage) ([10]; 63 g ai/ha) | phytotoxicity rating RICE (crop damage) ([10]; 250 g ai/ha) | also measured
1 | C=Cc1ccc(C(=O)Nc2c(OC)c(Br)cc(F)c2-n2c(=O)cc(C(F)(F)F)n(C)c2=O)cc1 [2-182] | 90 | 100 | 10 | 60 | 30 | 90 | 0 | 100 | 100 | 100 | 30 | 90 | 10 | 60 | 100 | 100 | 0 | 10 | 15 | 70 | ECHCG phytotoxicity rating ([11]; 63 g ai/ha): 0; ECHCG phytotoxicity rating ([11]; 250 g ai/ha): 30; SETVI phytotoxicity rating ([12]; 63 g ai/ha): 10; SETVI phytotoxicity rating ([12]; 250 g ai/ha): 80; IPOHE phytotoxicity rating ([13]; 63 g ai/ha): 100; IPOHE phytotoxicity rating ([13]; 250 g ai/ha): 100; CHEAL phytotoxicity rating ([14]; 63 g ai/ha): 95; CHEAL phytotoxicity rating ([14]; 250 g ai/ha): 100; DIGSA phytotoxicity rating ([15]; 63 g ai/ha): 0; DIGSA phytotoxicity rating ([15]; 250 g ai/ha): 20; AMARE phytotoxicity rating ([16]; 63 g ai/ha): 90; AMARE phytotoxicity rating ([16]; 250 g ai/ha): 95; CASOB phytotoxicity rating ([17]; 63 g ai/ha): 60; CASOB phytotoxicity rating ([17]; 250 g ai/ha): 95; ABUTH phytotoxicity rating ([18]; 63 g ai/ha): 100; ABUTH phytotoxicity rating ([18]; 250 g ai/ha): 100; CORN phytotoxicity rating (crop damage) ([19]; 63 g ai/ha): 5; CORN phytotoxicity rating (crop damage) ([19]; 250 g ai/ha): 70; RICE phytotoxicity rating (crop damage) ([20]; 63 g ai/ha): 0
2 | C=Cc1ccc(C(=O)N(C(=O)c2ccc(C=C)cc2)c2c(OC)c(Br)cc(F)c2-n2c(=O)cc(C(F)(F)F)n(C)c2=O)cc1 [2-183] | 0 | 30 | 0 | 0 | 0 | 0 | 0 | 0 | 0 | 40 | 0 | 0 | 0 | 0 | 0 | 10 | 0 | 0 | 0 | 0 | ECHCG phytotoxicity rating ([11]; 63 g ai/ha): 0; ECHCG phytotoxicity rating ([11]; 250 g ai/ha): 0; SETVI phytotoxicity rating ([12]; 63 g ai/ha): 0; SETVI phytotoxicity rating ([12]; 250 g ai/ha): 0; IPOHE phytotoxicity rating ([13]; 63 g ai/ha): 0; IPOHE phytotoxicity rating ([13]; 250 g ai/ha): 40; CHEAL phytotoxicity rating ([14]; 63 g ai/ha): 0; CHEAL phytotoxicity rating ([14]; 250 g ai/ha): 80; DIGSA phytotoxicity rating ([15]; 63 g ai/ha): 0; DIGSA phytotoxicity rating ([15]; 250 g ai/ha): 0; AMARE phytotoxicity rating ([16]; 63 g ai/ha): 0; AMARE phytotoxicity rating ([16]; 250 g ai/ha): 10; CASOB phytotoxicity rating ([17]; 63 g ai/ha): 0; CASOB phytotoxicity rating ([17]; 250 g ai/ha): 0; ABUTH phytotoxicity rating ([18]; 63 g ai/ha): 0; ABUTH phytotoxicity rating ([18]; 250 g ai/ha): 50; CORN phytotoxicity rating (crop damage) ([19]; 63 g ai/ha): 0; CORN phytotoxicity rating (crop damage) ([19]; 250 g ai/ha): 0; RICE phytotoxicity rating (crop damage) ([20]; 63 g ai/ha): 0; RICE phytotoxicity rating (crop damage) ([20]; 250 g ai/ha): 0
3 | COc1c(Cl)cc(F)c(-n2c(=O)cc(C(F)(F)F)n(N)c2=O)c1NC(=O)c1ccc2ccccc2c1 [2-184] | 100 | 100 | 30 | 80 | 50 | 100 | 50 | 100 | 100 | 100 | 60 | 100 | 50 | 75 | 100 | 100 | 0 | 30 | 30 | 60 | ECHCG phytotoxicity rating ([11]; 63 g ai/ha): 40; ECHCG phytotoxicity rating ([11]; 250 g ai/ha): 50; SETVI phytotoxicity rating ([12]; 63 g ai/ha): 60; SETVI phytotoxicity rating ([12]; 250 g ai/ha): 80; IPOHE phytotoxicity rating ([13]; 63 g ai/ha): 100; IPOHE phytotoxicity rating ([13]; 250 g ai/ha): 100; CHEAL phytotoxicity rating ([14]; 63 g ai/ha): 100; CHEAL phytotoxicity rating ([14]; 250 g ai/ha): 100; DIGSA phytotoxicity rating ([15]; 63 g ai/ha): 20; DIGSA phytotoxicity rating ([15]; 250 g ai/ha): 90; AMARE phytotoxicity rating ([16]; 63 g ai/ha): 100; AMARE phytotoxicity rating ([16]; 250 g ai/ha): 100; CASOB phytotoxicity rating ([17]; 63 g ai/ha): 100; CASOB phytotoxicity rating ([17]; 250 g ai/ha): 100; ABUTH phytotoxicity rating ([18]; 63 g ai/ha): 100; ABUTH phytotoxicity rating ([18]; 250 g ai/ha): 100; CORN phytotoxicity rating (crop damage) ([19]; 63 g ai/ha): 10; CORN phytotoxicity rating (crop damage) ([19]; 250 g ai/ha): 75; RICE phytotoxicity rating (crop damage) ([20]; 63 g ai/ha): 40; RICE phytotoxicity rating (crop damage) ([20]; 250 g ai/ha): 65

Source: patent US6355799B1, “Substituted benzene compounds, process for their preparation, and herbicidal and defoliant compositions containing them” (ISK Americas Incorporated, priority 1997, dated 2002)
